The source of these data is patent US20250195536A1, “BICYCLOOCTANE KRAS INHIBITORS” (Incyte Corporation, priority 2023, published 2025).

The target of data set [1] is KRAS G12D (Homo sapiens, UniProt P01116, G12D). In words: GDP-GTP exchange assay (KRAS G12D).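 Note: one dagger IC50 up to 100 nM and two daggers above 100 nM up to 1 μM.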 Format: biochemical. Conditions: bodipy-GDP/GppNHp exchange with SOS1; 4 h pre-incubation, 2 h reaction. Here is the method:
(§1) The inhibitor potency of the exemplified compounds was determined in a fluorescence based guanine nucleotide exchange assay, which measures the exchange of bodipy-GDP (fluorescently labeled GDP) for GppNHp (Non-hydrolyzable GTP analog) to generate the active state of KRAS in the presence of SOS1 (guanine nucleotide exchange factor). Inhibitors were serially diluted in DMSO and a volume of 0.1 μL was transferred to the wells of a black low volume 384-well plate. 5 μL/well volume of bodipy-loaded KRAS G12D diluted to 2.5 nM in assay buffer (25 mM Hepes pH 7.5, 50 mM NaCl, 10 mM MgCl2 and 0.01% Brij-35) was added to the plate and pre-incubated with inhibitor for 4 h at r.t. Appropriate controls (enzyme with no inhibitor or with a G12D inhibitor) were included on the plate. The exchange was initiated by the addition of a 5 μL/well volume containing 1 mM GppNHp and 300 nM SOS1 in assay buffer. The 10 μL/well reaction concentration of the bodipy-loaded KRAS G12D, GppNHp, and SOS1 were 2.5 nM, 500 μM, and 150 nM, respectively. The reaction plates were incubated at r.t. for 2 h, a time estimated for complete GDP-GTP exchange in the absence of inhibitor. For the KRAS G12V mutant, similar guanine nucleotide exchange assays were used with 2.5 nM as final concentration for the bodipy loaded KRAS proteins and 3 h incubation after adding GppNHp-SOS1 mixture. A cyclic peptide described to selectively bind G12D mutant (Sakamoto et al., BBRC 484.3 (2017), 605-611) or internal compounds with confirmed binding were used as positive controls in the assay plates. Fluorescence intensities were measured on a PheraStar plate reader instrument (BMG Labtech) with excitation at 485 nm and emission at 520 nm.
(§2) Either GraphPad prism or Genedata Screener SmartFit was used to analyze the data. The IC50 values were derived by fitting the data to a four parameter logistic equation producing a sigmoidal dose-response curve with a variable Hill coefficient.
(§3) The symbol “⬆” indicates IC50 100 nM, “⬆⬆” indicates IC50 >100 nM but ≤1 μM; and “⬆⬆⬆” indicates IC50 is >1 μM but ≤5 μM, “⬆⬆⬆⬆” indicates IC50 is >5 μM but ≤10 μM. “NA” indicates IC50 not available.

For data set [2], the target named is KRAS G12V (Homo sapiens, UniProt P01116, G12V). Description: GDP-GTP exchange assay (KRAS G12V).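 Note: one dagger IC50 up to 100 nM and two daggers above 100 nM up to 1 μM.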 Type of data set: biochemical. Conditions: bodipy-GDP/GppNHp exchange with SOS1; 3 h incubation after GppNHp-SOS1. On the procedure: as §1, §2, §3
Chain of KRAS G12V (P01116 1-188 isoform P01116-2 G12V): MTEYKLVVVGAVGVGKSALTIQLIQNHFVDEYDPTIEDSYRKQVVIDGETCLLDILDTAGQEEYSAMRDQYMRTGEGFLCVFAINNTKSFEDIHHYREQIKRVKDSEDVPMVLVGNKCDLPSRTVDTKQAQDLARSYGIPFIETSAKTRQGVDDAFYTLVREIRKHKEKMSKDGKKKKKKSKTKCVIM
The nature of data set [3]: Caco2 assay (permeability, Papp A-B). Conditions: human, Caco-2, absorptive direction (A-B), 50 μM test compound, 4% BSA in receiver. Type of data set: in vitro ADME. Here is the method: Caco-2 cells are grown at 37° C. in an atmosphere of 5% CO2 in DMEM growth medium supplemented with 10% (v/v) fetal bovine serum, 1% (v/v) nonessential amino acids, penicillin (100 U/mL), and streptomycin (100 μg/mL). Confluent cell monolayers are subcultured every 7 days or 4 days for Caco-2 by treatment with 0.05% trypsin containing […]. Caco-2 cells are seeded in 96-well Transwell plates. The seeding density for Caco-2 cells is 14,000 cells/well. DMEM growth medium is replaced every other day after seeding. Cell monolayers are used for transport assays between 22 and 25 days for Caco-2 cells.
Cell culture medium is removed and replaced with HBSS. To measure the TEER, the HBSS is added into the donor compartment (apical side) and receiver compartment (basolateral side). The TEER is measured by using a REMS Autosampler to ensure the integrity of the cell monolayers. Caco-2 cell monolayers with TEER values 300 Ω·cm^2 are used for transport experiments. To determine the Papp in the absorptive direction (A-B), solution of test compound (50 μM) in HBSS is added to the donor compartment (apical side), while HBSS solution with 4% BSA is added to the receiver compartment (basolateral side). The apical volume was 0.075 mL, and the basolateral volume is 0.25 mL. The incubation period is 120 min. at 37° C. in an atmosphere of 5% CO2. At the end of the incubation period, samples from the donor and receiver sides are removed and an equal volume of MeCN is added for protein precipitation. The supernatants are collected after centrifugation (3000 rpm, Allegra X-14R Centrifuge from Beckman Coulter, Indianapolis, IN) for LCMS analysis. The permeability value is determined according to the equation:
Papp(cm/s)=(F*VD)/(SA*MD),
where the flux rate (F, mass/time) is calc. from the slope of cumulative amounts of compound of interest on the receiver side, SA is the surface area of the cell membrane, VD is the donor volume, and MD is the initial amount of the solution in the donor chamber.
The symbol “+” indicates a Caco-2 value of ≤0.5, “++” indicates a Caco-2 value of >0.5 but ≤1; and “+++” indicates a Caco-2 value of >1. “NA” indicates Caco-2 value not available.

Bounds are passed on as bounds.

Chain of KRAS G12D (P01116 1-188 isoform P01116-2 G12D): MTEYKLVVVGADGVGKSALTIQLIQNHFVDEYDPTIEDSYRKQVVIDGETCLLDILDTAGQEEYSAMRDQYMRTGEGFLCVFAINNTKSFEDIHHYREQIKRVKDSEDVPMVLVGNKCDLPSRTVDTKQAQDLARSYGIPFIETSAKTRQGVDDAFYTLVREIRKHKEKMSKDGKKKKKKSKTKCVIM

In the case of `Cc1nc2c(F)c(-c3cccc(Cl)c3Cl)c(CCC#N)cc2c2c1cc([C@H]1[C@H]3C[C@H](CN(c4ccccc4)C3)N1C(=O)C1CC1)n2[C@H]1[C@H]2CN[C@@H]1C2` (atropisomer, axis not shown; (Ra)) [Example 1, 3-((Ra)-1-((1R,4R,5S)-2-Azabicyclo[2.1.1]hexan-5-yl)-2-((1 S,5R,7R)-6-(cyclopropanecarbonyl)-3-phenyl-3,6-diazabicyclo[3.2.1]octan-7-yl)-7-(2,3-dichlorophenyl)-6-fluoro-4-methyl-1H-pyrrolo[3,2-c]quinolin-8-yl)propanenitrile], in data set [1], the “G12D_exchange (KRAS_G12D exchange assay IC50)” value (shortened to “G12D_exchange”) is listed as “††”. The “G12V_exchange (KRAS_G12V exchange assay IC50)” value (“G12V_exchange” for short) in data set [2] is listed as “†”. Also, in data set [3], the Papp A→B at 120 min, 50 μM was at most 0.5 ×10⁻⁶ cm/s.
As to `Cc1nc2c(F)c(-c3cccc(Cl)c3Cl)c(CCC#N)cc2c2c1cc([C@H]1[C@H]3C[C@H](CN(c4ccccc4F)C3)N1C(=O)C1CC1)n2[C@H]1[C@H]2CN[C@@H]1C2` (atropisomer, axis not shown; (Ra)) [Example 2, 3-((Ra)-1-((1R,4R,5S)-2-Azabicyclo[2.1.1]hexan-5-yl)-2-((1 S,5R,7R)-6-(cyclopropanecarbonyl)-3-(2-fluorophenyl)-3,6-diazabicyclo[3.2.1]octan-7-yl)-7-(2,3-dichlorophenyl)-6-fluoro-4-methyl-1H-pyrrolo[3,2-c]quinolin-8-yl)propanenitrile], the “G12D_exchange” value in data set [1] was “†”. In data set [2], the “G12V_exchange” value is “†”. In data set [3], this molecule showed a Papp A→B at 120 min, 50 μM of at most 0.5 ×10⁻⁶ cm/s.
For `Cc1nc2c(F)c(-c3cccc(Cl)c3Cl)c(CCC#N)cc2c2c1cc([C@H]1[C@H]3C[C@H](CN(c4ccc(OC(F)(F)F)cc4)C3)N1C(=O)C1CC1)n2[C@H]1[C@H]2CN[C@@H]1C2` (atropisomer, axis not shown; (Ra)) [Example 3, 3-((Ra)-1-((1R,4R,5S)-2-azabicyclo[2.1.1]hexan-5-yl)-2-((1S,5R,7R)-6-(cyclopropanecarbonyl)-3-(4-(trifluoromethoxy)phenyl)-3,6-diazabicyclo[3.2.1]octan-7-yl)-7-(2,3-dichlorophenyl)-6-fluoro-4-methyl-1H-pyrrolo[3,2-c]quinolin-8-yl)propanenitrile], in data set [1], the “G12D_exchange” value is on record as “††”. The “G12V_exchange” value in data set [2] is listed as “†”. Further, in data set [3], the apical-to-basolateral permeability (Papp A→B) at 120 min, 50 μM is at most 0.5 ×10⁻⁶ cm/s.
For `Cc1nc2c(F)c(-c3cccc(Cl)c3Cl)c(CCC#N)cc2c2c1cc([C@H]1[C@H]3C[C@H](CN(c4ccc(C#N)cc4)C3)N1C(=O)C1CC1)n2[C@H]1[C@H]2CN[C@@H]1C2` (atropisomer, axis not shown; (Ra)) [Example 4, 4-((1S,5R,7R)-7-((Ra)-1-((1R,4R,5S)-2-azabicyclo[2.1.1]hexan-5-yl)-8-(2-cyanoethyl)-7-(2,3-dichlorophenyl)-6-fluoro-4-methyl-1H-pyrrolo[3,2-c]quinolin-2-yl)-6-(cyclopropanecarbonyl)-3,6-diazabicyclo[3.2.1]octan-3-yl)benzonitrile] the same measures were “†”, “†” and at most 0.5 ×10⁻⁶ cm/s.
As for `Cc1nc2c(F)c(-c3cccc(Cl)c3Cl)c(CCC#N)cc2c2c1cc([C@H]1[C@H]3C[C@H](CN(c4ccc(C(F)(F)F)nc4)C3)N1C(=O)C1CC1)n2[C@H]1[C@H]2CN[C@@H]1C2` (atropisomer, axis not shown; (Ra)) [Example 5, 3-((Ra)-1-((1R,4R,5S)-2-azabicyclo[2.1.1]hexan-5-yl)-2-((1S,5R,7R)-6-(cyclopropanecarbonyl)-3-(6-(trifluoromethyl)pyridin-3-yl)-3,6-diazabicyclo[3.2.1]octan-7-yl)-7-(2,3-dichlorophenyl)-6-fluoro-4-methyl-1H-pyrrolo[3,2-c]quinolin-8-yl)propanenitrile], the “G12D_exchange” value in data set [1] is recorded as “†”. The “G12V_exchange” value in data set [2] is recorded as “†”. In addition, the Papp A→B at 120 min, 50 μM in data set [3] is at most 0.5 ×10⁻⁶ cm/s.
Turning to `Cc1nc2c(F)c(-c3cccc(Cl)c3Cl)c(CCC#N)cc2c2c1cc([C@H]1[C@H]3C[C@H](CN(c4ccc5c(c4)OC(F)(F)O5)C3)N1C(=O)C1CC1)n2[C@H]1[C@H]2CN[C@@H]1C2` (atropisomer, axis not shown; (Ra)) [Example 7, 3-((Ra)-1-((1R,4R,5S)-2-azabicyclo[2.1.1]hexan-5-yl)-2-((1S,5R,7R)-6-(cyclopropanecarbonyl)-3-(2,2-difluorobenzo[d][1,3]dioxol-5-yl)-3,6-diazabicyclo[3.2.1]octan-7-yl)-7-(2,3-dichlorophenyl)-6-fluoro-4-methyl-1H-pyrrolo[3,2-c]quinolin-8-yl)propanenitrile], in data set [1], the “G12D_exchange” value is on record as “†”. For the same molecule, in data set [2], the “G12V_exchange” value is on record as “†”. In data set [3], this molecule registered a Papp A→B at 120 min, 50 μM of at most 0.5 ×10⁻⁶ cm/s.
Turning to `COC(=O)N1[C@@H]2C[C@@H](CN(c3ncc(OCC4CC4)cn3)C2)[C@@H]1c1cc2c(C)nc3c(F)c(-c4cccc(Cl)c4Cl)c(CCC#N)cc3c2n1[C@H]1[C@H]2CN[C@@H]1C2` (atropisomer, axis not shown; (Ra)) [Example 126, Methyl (1 S,5R,7R)-7-((Ra)-1-((1R,4R,5S)-2-azabicyclo[2.1.1]hexan-5-yl)-8-(2-cyanoethyl)-7-(2,3-dichlorophenyl)-6-fluoro-4-methyl-1H-pyrrolo[3,2-c]quinolin-2-yl)-3-(5-(cyclopropylmethoxy)pyrimidin-2-yl)-3,6-diazabicyclo[3.2.1]octane-6-carboxylate], the “G12V_exchange” value in data set [2] is given as “†”. The Papp A→B at 120 min, 50 μM in data set [3] was at most 0.5 ×10⁻⁶ cm/s.
On to `COC(=O)N1[C@@H]2C[C@@H](CN(c3cnc(C#N)cn3)C2)[C@@H]1c1cc2c(C)nc3c(F)c(-c4cccc(Cl)c4Cl)c(CCC#N)cc3c2n1[C@H]1[C@H]2CN[C@@H]1C2` (atropisomer, axis not shown; (Ra)) [Example 127, Methyl (1 S,5R,7R)-7-((Ra)-1-((1R,4R,5S)-2-azabicyclo[2.1.1]hexan-5-yl)-8-(2-cyanoethyl)-7-(2,3-dichlorophenyl)-6-fluoro-4-methyl-1H-pyrrolo[3,2-c]quinolin-2-yl)-3-(5-cyanopyrazin-2-yl)-3,6-diazabicyclo[3.2.1]octane-6-carboxylate], for which, in data set [2], the “G12V_exchange” value was “†”. Further, the apparent permeability from apical to basolateral (Papp A→B) at 120 min, 50 μM in data set [3] is at most 0.5 ×10⁻⁶ cm/s.
Turning to `Cc1nc2c(F)c(-c3cccc(Cl)c3Cl)c(CCC#N)cc2c2c1cc([C@H]1[C@H]3C[C@H](CN(c4cc(C(C)(F)F)ncn4)C3)N1C(=O)C1(F)CC1)n2[C@H]1[C@H]2CN[C@@H]1C2` (atropisomer, axis not shown; (Ra)) [Example 128, 3-((Ra)-1-((1R,4R,5S)-2-azabicyclo[2.1.1]hexan-5-yl)-7-(2,3-dichlorophenyl)-2-((1S,5R,7R)-3-(6-(1,1-difluoroethyl)pyrimidin-4-yl)-6-(1-fluorocyclopropane-1-carbonyl)-3,6-diazabicyclo[3.2.1]octan-7-yl)-6-fluoro-4-methyl-1H-pyrrolo[3,2-c]quinolin-8-yl)propanenitrile], the “G12V_exchange” value in data set [2] was “†”. For the same molecule, the Papp A→B at 120 min, 50 μM in data set [3] was at most 0.5 ×10⁻⁶ cm/s.
